Laboratory results from US11370785B2, “Multicyclic compounds as farnesoid X receptor modulators” (BRISTOL-MYERS SQUIBB COMPANY, priority 2017, dated 2022).
Read-outs that look alike come from different tables or passages of the source.

Target: T1, human FXR (Homo sapiens, UniProt Q96RI1)
T1 construct: expressed in transfected cells; host or cells: HEK293 cells stably carrying a 5xGal4-response-element firefly luciferase reporter, transiently transfected with the pcDNA3.1-Gal4-FXR plasmid
T1 sequence (Q96RI1 262-486 limits assumed): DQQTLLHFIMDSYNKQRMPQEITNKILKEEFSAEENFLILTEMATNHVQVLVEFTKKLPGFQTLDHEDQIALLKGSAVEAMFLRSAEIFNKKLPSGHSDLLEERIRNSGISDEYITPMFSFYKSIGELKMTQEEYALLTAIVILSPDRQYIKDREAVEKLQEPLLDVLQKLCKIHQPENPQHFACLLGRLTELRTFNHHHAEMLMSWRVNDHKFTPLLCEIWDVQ
Assay: transient human FXR/Gal4-luciferase reporter assay
Assay type: cell-based
Conditions: Gal4-hFXR reporter in HEK293 cells
Outline: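 HEK293 cells stably carrying a 5×Gal4-response-element firefly luciferase reporter, transiently transfected with a CMV-driven Gal4 DNA-binding domain–human FXR ligand-binding domain fusion, were treated overnight at 37 °C with serially diluted compounds. Luminescence was read by Steady-Glo; DMSO background was subtracted and signal expressed as percent of the 8 μM GW-4064 response.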

[1] = relative to 8 μM GW-4064, read-out: FXR EC50

Row | Structure (SMILES) | EC50 (read-out: HLE GAL-FXR EC50) | EC50 [1]
1 | O=C(O)c1cc(F)c2nc(N3CCC4(CC3)CC(=Cc3c(C5CC5)cnn3-c3c(Cl)cccc3Cl)C4)sc2c1 [Example 7, 2-(2-((4-Cyclopropyl-1-(2,6-dichlorophenyl)-1H-pyrazol-5-yl)methylene)-7-azaspiro[3.5]nonan-7-yl)-4-fluorobenzo[d]thiazole-6-carboxylic acid] | 201 nM | –
2 | COCCOc1cc(C(=O)O)nc2ccc(N3CCC4(CC3)CC(=Cc3c(-c5ccccc5OC(F)(F)F)noc3C3CC3)C4)cc12 [Example 110] | – | 634 nM
3 | O=C(O)c1cc(C(F)(F)F)c2cc(N3CCC4(CC3)CC(Cc3c(-c5c(Cl)cccc5Cl)noc3C3CC3)C4)ccc2n1 [Example 41] | – | 13 nM
4 | Clc1cccc(Cl)c1-c1noc(C2CC2)c1C=C1CC2(CCN(c3ccc(-c4nn[nH]n4)cc3)CC2)C1 [Example 50, 4-((7-(4-(2H-tetrazol-5-yl)phenyl)-7-azaspiro[3.5]nonan-2-ylidene)methyl)-5-cyclopropyl-3-(2,6-dichlorophenyl)isoxazole] | 4330 nM | –
5 | COCCn1cc(C(=O)O)c2ccc(N3CCC4(CC3)CC(=Cc3c(-c5c(Cl)cccc5Cl)noc3C3CC3)C4)cc21 [Example 57] | – | 19 nM
6 | O=C(O)c1cc(OC(F)F)c2cc(N3CCC4(CC3)CC(=Cc3c(-c5ccccc5C(F)(F)F)noc3C3CC3)C4)ccc2n1 [Example 86] | – | 10 nM
7 | O=C(O)c1cc(F)c2nc(N3CCC4(CC3)CC(=Cc3c(C5CC5)nnn3-c3c(Cl)cccc3Cl)C4)sc2c1 [Example 6, 2-(2-((4-Cyclopropyl-1-(2,6-dichlorophenyl)-1H-1,2,3-triazol-5-yl)methylene)-7-azaspiro[3.5]nonan-7-yl)-4-fluorobenzo[d]thiazole-6-carboxylic acid] | 402 nM | –
8 | O=C(O)c1cc(F)c2nc(N3CCC4(CC3)CC(=Cc3c(-c5ccccc5C(F)(F)F)noc3C3CC3)C4)sc2c1 [Example 31] | – | 173 nM
9 | O=C(O)c1cc(OC2CCC2)c2cc(N3CCC4(CC3)CC(=Cc3c(-c5c(Cl)cncc5Cl)noc3C(F)(F)F)C4)ccc2n1 [Example 164] | – | 11 nM
10 | O=C(O)c1cc(C(F)(F)F)c2cc(N3CCC4(CC3)CC(=Cc3c(C(C5CC5)C5CC5)noc3C3CC3)C4)ccc2n1 [Example 106] | – | 1420 nM
11 | O=C(O)c1cc(OC2CCOC2)c2cc(N3CCC4(CC3)CC(Cc3c(-c5ccccc5C(F)(F)F)noc3C3CC3)C4)ccc2n1 (centres unmarked) [Example 151] | – | 12 nM
12 | O=C(O)c1ccc2cc(N3CCC4(CC3)CC(Cc3c(-c5ccccc5C(F)(F)F)noc3C3CC3)C4)ccc2n1 [Example 32] | – | 243 nM
13 | O=C(O)c1ncc(N2CCC3(CC2)CC(=Cc2c(-c4ccccc4C(F)(F)F)noc2C2CC2)C3)cc1C(F)(F)F [Example 157] | – | 2470 nM
14 | COc1cc(C(=O)O)nc2ccc(N3CCC4(CC3)CC(=Cc3c(-c5c(Cl)cncc5Cl)noc3C(F)(F)F)C4)cc12 [Example 161] | – | 27 nM
15 | N#Cc1cccc(N2CCC3(CC2)CC(=Cc2c(-c4c(Cl)cccc4Cl)noc2C2CC2)C3)c1 [Example 49] | – | 2570 nM
16 | O=C(O)c1cc(OCCO)c2cc(N3CCC4(CC3)CC(=Cc3c(-c5ccccc5C(F)(F)F)noc3C3CC3)C4)ccc2n1 [Example 92] | – | 450 nM
17 | O=C(O)c1cccc(N2CCC3(CC2)CC(Cc2c(-c4c(Cl)cccc4Cl)noc2C2CC2)C3)n1 [Example 12] | – | 2190 nM
18 | Cc1cccc(Cl)c1-c1noc(C2CC2)c1C=C1CC2(CCN(c3ccc4cc(C(=O)O)ccc4c3)CC2)C1 [Example 55] | – | 125 nM
19 | O=C(O)c1cc2ccc(N3CCC4(CC3)CC(Cc3c(-c5ccccc5C(F)(F)F)noc3C3CC3)C4)cc2cn1 [Example 35] | – | 960 nM

Row | Structure (SMILES) | EC50 (read-out: HLE GAL-FXR EC50) | EC50 [1]
20 | COc1cc(C(=O)O)nc2ccc(N3CCC4(CC3)CC(=Cc3c(-c5ccccc5C(F)(F)F)noc3C(F)(F)F)C4)cc12 [Example 168] | – | 23 nM
21 | COCCOc1cc(C(=O)O)nc2ccc(N3CCC4(CC3)CC(Cc3c(-c5ccccc5C(F)(F)F)noc3C3CC3)C4)cc12 [Example 97] | – | 73 nM
22 | O=C(c1cc(OC2CCC2)c2cc(N3CCC4(CC3)CC(Cc3c(-c5ccccc5C(F)(F)F)noc3C3CC3)C4)ccc2n1)N1CCOCC1 [Example 181] | – | 44 nM
23 | O=C(c1cc(OC2CCC2)c2cc(N3CCC4(CC3)CC(Cc3c(-c5ccccc5C(F)(F)F)noc3C3CC3)C4)ccc2n1)N1CCCC1 [Example 188] | – | 76 nM
24 | O=C(O)C1(c2ccc(N3CCC4(CC3)CC(=Cc3c(-c5c(Cl)cccc5Cl)noc3C3CC3)C4)cc2)CC1 [Example 46] | – | 391 nM
25 | COc1cc(C(=O)O)nc2ccc(N3CCC4(CC3)CC(=Cc3c(-c5c(Cl)cccc5Cl)noc3C(F)(F)F)C4)cc12 [Example 140] | – | 4 nM
26 | O=C(O)c1cccc(N2CCC3(CC2)CC(Nc2c(-c4c(Cl)cccc4Cl)noc2C2CC2)C3)n1 [Example 14] | – | 1570 nM
27 | O=C(O)c1cc(OC2CCC2)c2cc(N3CCC4(CC3)CC(Cc3c(-c5ccccc5C(F)(F)F)noc3C3CC3)C4)ccc2n1 [Example 109] | – | 33 nM
28 | O=C(O)c1cc(C(F)(F)F)c2cc(N3CCC4(CC3)CC(=Cc3c(-c5ccncc5C(F)(F)F)noc3C3CC3)C4)ccc2n1 [Example 128] | – | 19 nM
29 | C=Cc1cncc(C=C)c1-c1noc(C2CC2)c1C=C1CC2(CCN(c3nc4c(F)cc(C(=O)O)cc4s3)CC2)C1 [Example 165] | – | 1700 nM
30 | O=C(O)c1cccc(N2CCC3(CC2)CC(=Cc2c(-c4c(Cl)cccc4Cl)noc2C2CC2)C3)c1 [Example 64] | – | 370 nM
31 | CN(C)C(=O)c1cc(OC2CCC2)c2cc(N3CCC4(CC3)CC(Cc3c(-c5ccccc5C(F)(F)F)noc3C3CC3)C4)ccc2n1 [Example 172, 4-Cyclobutoxy-6-(2-((5-cyclopropyl-3-(2-(trifluoromethyl)phenyl)isoxazol-4-yl)methyl)-7-azaspiro[3.5]nonan-7-yl)-N,N-dimethylquinoline-2-carboxamide] | – | 69 nM
32 | Cn1cc(C(=O)O)c2ccc(N3CCC4(CC3)CC(=Cc3c(-c5ccccc5C(F)(F)F)noc3C3CC3)C4)cc21 [Example 39] | – | 4 nM
33 | O=C(O)c1cc(OC2CCC2)c2cc(N3CCC4(CC3)CC(=Cc3c(-c5ccccc5C(F)(F)F)noc3C3CC3)C4)ccc2n1 [Example 108] | – | 4 nM
34 | CC(C)Oc1cc(C(=O)O)nc2ccc(N3CCC4(CC3)CC(=Cc3c(-c5ccccc5OC(F)(F)F)noc3C3CC3)C4)cc12 [Example 80] | – | 2 nM
35 | Cc1nc(C(=O)O)c2ccc(N3CCC4(CC3)CC(Cc3c(-c5ccccc5C(F)(F)F)noc3C3CC3)C4)cn12 [Example 75] | – | 1990 nM
36 | O=C(O[C@@H]1O[C@H](C(=O)O)[C@@H](O)[C@H](O)[C@H]1O)c1cc(C(F)(F)F)c2cc(N3CCC4(CC3)CC(Cc3c(-c5ccccc5C(F)(F)F)noc3C3CC3)C4)ccc2n1 [Example 145, (2S,3S,4S,5R,6S)-6-((6-(2-((5-Cyclopropyl-3-(2-(trifluoromethyl)phenyl)isoxazol-4-yl)methyl)-7-azaspiro[3.5]nonan-7-yl)-4-(trifluoromethyl)quinoline-2-carbonyl)oxy)-3,4,5-trihydroxytetrahydro-2H-pyran-2-carboxylic acid] | – | 36 nM
37 | CN(C)C(=O)c1cc(C(F)(F)F)c2cc(N3CCC4(CC3)CC(Cc3c(-c5ccccc5C(F)(F)F)noc3C3CC3)C4)ccc2n1 [Example 178] | – | 154 nM
38 | NC(=O)c1cc(C(F)(F)F)c2cc(N3CCC4(CC3)CC(Cc3c(-c5ccccc5C(F)(F)F)noc3C3CC3)C4)ccc2n1 [Example 177] | – | 2240 nM
